Measurements as given in patent publication US7842809B2, “Pyrazolopyridines and salts thereof, a pharmaceutical composition comprising said compounds, a method of preparing same and use of same” (Bayer Schering Pharma AG, priority 2005, dated 2010).

What was measured:
VEGFR-2 = biological target: T1, VEGFR-2 (Homo sapiens, UniProt P35968); assay: VEGFR-2 kinase assay (Biological Experiment 5, HTRF); type: biochemical; settings: mean IC50; recombinant VEGFR-2, 10 μM ATP; read-out: Inhibition of VEGFR-2 kinase
T1 construct: made in house; host or cells: E. coli
Experimental: Biological Experiment 5: VEGFR-2 Kinase Assay
Recombinant VEGFR-2 protein was expressed in E. coli and purified. As kinase substrate, a biotinylated peptide with the amino acid sequence biotin-DFGLARDMYDKEYYSVG was used, which was obtained from Biosynthan.
VEGFR-2 [Test volume 5 μL] was incubated for 45 min at 22° C. in the presence of different concentrations of test substances (0 μM, including 10 datapoints within the range 0.001-20 μM in duplicate) in assay buffer [50 mM HEPES pH7.0, 25.0 mM MgCl2, 5.0 mM MnCl2, 0.1 mM Na ortho-Vanadate, 1.0 mM Dithiothreitol, 0.001% NP40, 10 μM ATP, 1.2 μM peptide substrate, 1.0% DMSO]. The reaction was stopped by addition of 5 μL of an EDTA/detection-solution [50 mM HEPES pH7.5, 125 mM EDTA, 0.2% BSA, 0.1 μM Streptavidin-XLent (obtained from CisBio), 1 nM PT66-Eu (obtained from PerkinElmer)]. The measurement of the fluorescence emission at 620 nm and 665 nm through excitation with light of wavelength 350 nm was accomplished in a Rubystar HTRF-measurement instrument obtained from BMG Labsystems.
The data (ratio of emission at 665 nm to emission at 620 nm multiplied by 10000) was normalised to 0% inhibition (enzyme reaction without inhibitor) and 100% inhibition (all assay components without enzyme). The determination of the IC50 values was accomplished with a 4-parameter fit using in-house software.

Tie2 [1] = biological target: T2, Tie2 (Homo sapiens, UniProt Q02763); assay: Tie-2 kinase assay without preactivation of kinase (Biological Experiment 3, HTRF); type: biochemical; parameters: fusion protein of GST and the intracellular domains of Tie-2; GST; made in house; host or cells: insect cells (Hi-5); settings: mean IC50; GST-Tie-2 without preactivation, 10 μM ATP; read-out: Inhibition of Tie-2 kinase (Biological Experiment 3)
From the text: Biological Experiment 3: Tie-2 Kinase Assay without Preactivation of Kinase
A recombinant fusion protein of GST and the intracellular domains of Tie-2, expressed in insect cells (Hi-5) and purified by Glutathion-Sepharose affinity chromatography was used as kinase. Alternatively, commercially available GST-Tie2-fusion protein (Upstate Biotechnology, Dundee, Scotland) can be used. As substrate for the kinase reaction the biotinylated peptide biotin-Ahx-EPKDDAYPLYSDFG (C-terminus in amide form) was used which can be purchased e.g. from the company Biosynthan GmbH (Berlin-Buch, Germany). Tie-2 (3.5 ng/measurement point) was incubated for 60 min at 22° C. in the presence of 10 μM adenosine-tri-phosphate (ATP) and 1 μM substrate peptide (biotin-Ahx-EPKDDAYPLYSDFG-NH2) with different concentrations of test compounds (0 μM and concentrations in the range 0.001-20 μM) in 5 μl assay buffer [50 mM Hepes/NaOH pH 7, 10 mM MgCl2, 0.5 mM MnCl2, 1.0 mM dithiothreitol, 0.01% NP40, protease inhibitor mixture (“Complete w/o EDTA” from Roche, 1 tablet per 2.5 ml), 1% (v/v) dimethylsulfoxide]. To stabilize the enzyme, bovine serum albumin (0.1%, w/v) can be added. The reaction was stopped by the addition of 5 μl of an aqueous buffer (25 mM Hepes/NaOH pH 7.5, 0.28% (w/v) bovine serum albumin) containing EDTA (90 mM) and the HTRF (Homogeneous Time Resolved Fluorescence) detection reagents streptavidine-XLent (0.2 μM, from C is Biointernational, Marcoule, France) and PT66-Eu-Chelate (0.3 ng/μl; a europium-chelate labelled anti-phospho-tyrosine antibody from Perkin Elmer).
The resulting mixture was incubated 1 h at 22° C. to allow the binding of the biotinylated phosphorylated peptide to the streptavidine-XLent and the PT66-Eu-Chelate. Subsequently the amount of phosphorylated substrate peptide was evaluated by measurement of the resonance energy transfer from the PT66-Eu-Chelate to the streptavidine-XLent. Therefore, the fluorescence emissions at 620 nm and 665 nm after excitation at 350 nm was measured in a HTRF reader, e.g. a Rubystar (BMG Labtechnologies, Offenburg, Germany) or a Viewlux (Perkin-Elmer). The ratio of the emissions at 665 nm and at […] was taken as the measure for the amount of phosphorylated substrate peptide. The data were normalised (enzyme reaction without inhibitor=0% inhibition, all other assay components but no enzyme=100% inhibition) and IC50 values were calculated by a 4 parameter fit using an inhouse software.
Target sequence in this assay (Q02763 770-1124 limits assumed): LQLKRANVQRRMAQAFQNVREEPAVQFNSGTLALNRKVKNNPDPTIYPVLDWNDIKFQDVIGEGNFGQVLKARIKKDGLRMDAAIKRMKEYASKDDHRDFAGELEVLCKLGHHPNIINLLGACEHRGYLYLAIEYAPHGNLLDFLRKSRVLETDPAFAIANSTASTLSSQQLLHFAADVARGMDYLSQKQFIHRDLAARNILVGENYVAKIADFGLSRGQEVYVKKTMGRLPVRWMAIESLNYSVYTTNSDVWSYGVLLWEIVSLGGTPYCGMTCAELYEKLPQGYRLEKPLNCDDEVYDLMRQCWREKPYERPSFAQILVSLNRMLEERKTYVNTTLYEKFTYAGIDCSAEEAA

Tie2 [2] = biological target: T2, Tie2; assay: Tie-2 ELISA: angiopoietin-2 stimulated Tie2 autophosphorylation in Tie2-transfected CHO cells (Biological Experiment 1); type: cell-based; parameters: expressed in transfected cells; host or cells: CHO (DHFR-deficient), stably transfected; settings: mean IC50; CHO Tie2/DHFR cells stimulated with Ang2-Fc
Experimental: Biological Experiment 1: ELISA-Assay
Herein CHO cell-cultures, which are stably transfected by known techniques with Tie2 using DHFR deficiency as selection marker, are stimulated by angiopoietin-2. The specific autophosphorylation of Tie2 receptors is quantified with a sandwich-ELISA using anti-Tie2 antibodies for catch and anti-phosphotyrosine antibodies coupled to HRP as detection.
• 1 cap Vanadate (1 mL>40 mg/mL; working solution 2 mM) • ad 50 mL with Duschl buffer • pH 7.6 Anti-TIE-II antibody 1:425 in Coating Buffer pH 9.6 Stock solution: 1.275 mg/ml>working.: 3 μg/mL PBST: 2 bottles PBS(10×)+10 ml Tween, fill up with deionised water RotiBlock 1:10 in deionised water Anti-Phosphotyrosine HRP-Conjugated 1:10000 in 3% TopBlock • 3% TopBlock in PBST BM Chemiluminescence ELISA Substrate (POD) • solution B 1:100 solution A SF9 cell culture medium Ang2-Fc in SF9 cell culture medium Cell Experiment: Dispense 5×10^4 cells/well/98 μl in 96 well tissue culture plate Incubate at 37° C./5% CO2 After 24 h add compounds according to desired concentrations Add also to control and stimulated values without compounds 2 μl DMSO And mix for a few min at room temperature Add 100 μAng2-Fc to all wells except control, which receives insect medium Incubate 20 min at 37° C. Wash 3× with PBS++ Add 100 μl Lysis buffer/well and shake a couple of min at room temperature Store lysates at […] before utilizing for the ELISA Performance of Sandwich-ELISA Coat 96 well FluoroNunc Plate MaxiSorp Surface C with anti-Tie2 Mab 1:425 in Coating buffer pH 9.6; 100 μL/well overnight at 4° C. Wash 2× with PBST Block plates with 250 μL/well RotiBlock 1:10 in deionised water Incubate for 2 h at room temperature or overnight at 4° C. shaking Wash 2× in PBST Add thawed lysates to wells and incubate overnight shaking at 4° C. Wash 2× with PBST Add 100 μL/well anti-Phosphotyrosine HRP-Conjugated 1:10000 in 3% TopBlock (3% TopBlock in PBST) and incubate overnight under shaking Wash 6× with PBST Add 100 μL/well BM Chemiluminescence ELISA Substrate (POD solutions 1 and 2 (1:100) Determine luminescence with the LumiCount. Biological Experiment 2: Tie-2-Kinase HTRF-Assay
Target sequence in this assay (Q02763 23-1124): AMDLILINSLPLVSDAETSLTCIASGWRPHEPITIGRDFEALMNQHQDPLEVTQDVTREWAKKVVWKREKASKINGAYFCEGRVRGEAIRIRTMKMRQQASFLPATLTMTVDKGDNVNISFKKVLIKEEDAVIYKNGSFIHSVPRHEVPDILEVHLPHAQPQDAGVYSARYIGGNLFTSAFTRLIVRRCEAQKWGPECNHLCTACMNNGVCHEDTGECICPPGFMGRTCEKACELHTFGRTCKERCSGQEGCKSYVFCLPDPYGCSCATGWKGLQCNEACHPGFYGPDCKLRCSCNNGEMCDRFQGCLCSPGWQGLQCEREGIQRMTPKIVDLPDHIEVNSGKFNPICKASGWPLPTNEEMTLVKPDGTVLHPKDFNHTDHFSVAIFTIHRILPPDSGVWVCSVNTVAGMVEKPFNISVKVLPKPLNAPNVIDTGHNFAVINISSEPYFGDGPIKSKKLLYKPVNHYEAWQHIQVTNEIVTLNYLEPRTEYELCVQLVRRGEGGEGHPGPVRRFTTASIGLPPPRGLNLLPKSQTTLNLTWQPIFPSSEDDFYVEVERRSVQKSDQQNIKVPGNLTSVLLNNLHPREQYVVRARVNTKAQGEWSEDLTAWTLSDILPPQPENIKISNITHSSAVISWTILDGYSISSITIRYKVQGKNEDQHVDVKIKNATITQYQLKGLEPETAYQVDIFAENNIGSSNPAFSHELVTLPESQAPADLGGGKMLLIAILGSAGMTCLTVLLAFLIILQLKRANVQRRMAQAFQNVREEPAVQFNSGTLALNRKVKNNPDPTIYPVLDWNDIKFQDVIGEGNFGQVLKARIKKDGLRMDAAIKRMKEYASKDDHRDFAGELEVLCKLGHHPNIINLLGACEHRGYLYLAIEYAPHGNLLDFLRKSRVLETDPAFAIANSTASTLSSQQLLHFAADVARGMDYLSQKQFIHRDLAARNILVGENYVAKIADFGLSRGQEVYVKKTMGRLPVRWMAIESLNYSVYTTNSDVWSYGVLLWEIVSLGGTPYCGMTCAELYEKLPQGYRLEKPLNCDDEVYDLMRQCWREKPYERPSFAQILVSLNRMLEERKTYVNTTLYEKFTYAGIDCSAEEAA

T1 sequence (P35968 20-1356): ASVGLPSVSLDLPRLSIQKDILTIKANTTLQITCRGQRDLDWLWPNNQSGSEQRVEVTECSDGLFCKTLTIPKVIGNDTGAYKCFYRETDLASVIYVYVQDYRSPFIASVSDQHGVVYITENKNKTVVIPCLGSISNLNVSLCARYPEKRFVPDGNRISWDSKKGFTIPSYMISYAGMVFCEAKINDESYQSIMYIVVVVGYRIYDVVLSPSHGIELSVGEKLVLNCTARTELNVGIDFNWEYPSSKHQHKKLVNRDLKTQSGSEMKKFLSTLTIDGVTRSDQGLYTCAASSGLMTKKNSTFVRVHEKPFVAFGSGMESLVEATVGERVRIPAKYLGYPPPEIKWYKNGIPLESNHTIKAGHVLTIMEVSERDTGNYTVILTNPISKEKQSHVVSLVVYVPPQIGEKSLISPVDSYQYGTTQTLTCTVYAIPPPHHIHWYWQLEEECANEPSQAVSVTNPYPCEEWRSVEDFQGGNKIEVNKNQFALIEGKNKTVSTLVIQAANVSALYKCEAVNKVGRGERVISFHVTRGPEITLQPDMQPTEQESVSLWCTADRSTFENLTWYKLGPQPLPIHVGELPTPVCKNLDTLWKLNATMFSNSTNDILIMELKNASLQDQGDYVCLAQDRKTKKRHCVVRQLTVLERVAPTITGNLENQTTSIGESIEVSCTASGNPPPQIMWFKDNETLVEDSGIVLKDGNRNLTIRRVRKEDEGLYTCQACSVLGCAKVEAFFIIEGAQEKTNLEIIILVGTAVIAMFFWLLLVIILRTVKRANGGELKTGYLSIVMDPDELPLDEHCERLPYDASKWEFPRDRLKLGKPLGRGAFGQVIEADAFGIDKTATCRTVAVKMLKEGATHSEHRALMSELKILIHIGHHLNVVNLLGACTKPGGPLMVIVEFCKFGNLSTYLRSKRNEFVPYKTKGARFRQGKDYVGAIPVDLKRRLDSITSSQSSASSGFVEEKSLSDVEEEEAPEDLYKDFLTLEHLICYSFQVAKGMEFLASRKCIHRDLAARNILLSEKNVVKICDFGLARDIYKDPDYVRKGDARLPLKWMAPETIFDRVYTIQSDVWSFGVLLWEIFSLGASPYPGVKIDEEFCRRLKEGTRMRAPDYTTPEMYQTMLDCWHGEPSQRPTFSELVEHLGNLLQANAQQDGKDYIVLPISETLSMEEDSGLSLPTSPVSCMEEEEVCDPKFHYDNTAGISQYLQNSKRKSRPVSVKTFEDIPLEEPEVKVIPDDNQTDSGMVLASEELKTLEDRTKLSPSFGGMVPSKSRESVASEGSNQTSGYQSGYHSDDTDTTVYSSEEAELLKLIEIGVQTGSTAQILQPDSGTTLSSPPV

Row | Compound | IC50 (VEGFR-2) [nM] | IC50 (Tie2 [1]) [nM] | IC50 (Tie2 [2]) [nM]
1 | CC(C)(C)c1cc(-c2ccc(NC(=O)Nc3ccccc3)cc2)c2c(N)n[nH]c2n1 [Example 1, 1-[4-(3-amino-6-tert-butyl-1H-pyrazolo[3,4-b]pyridin-4-yl)-phenyl]-3-phenyl-urea] | 500 to 2000 | ≤ 500 | 500 to 2000
2 | CC(C)(C)c1cc(-c2ccc(NS(=O)(=O)c3ccccc3)cc2)c2c(N)n[nH]c2n1 [Example 2, N-[4-(3-amino-6-tert-butyl-1H-pyrazolo[3,4-b]pyridin-4-yl)-phenyl]-benzenesulfonamide] | – | 500 to 2000 | 500 to 2000
3 | CC(C)(C)c1cc(-c2ccc(NC(=O)Nc3cccc(F)c3)cc2)c2c(N)n[nH]c2n1 [Example 3, 1-[4-(3-amino-6-tert-butyl-1H-pyrazolo[3,4-b]pyridin-4-yl)-phenyl]-3-(3-fluoro-phenyl)-urea] | – | 500 to 2000 | ≤ 500
4 | Cc1cccc(NC(=O)Nc2ccc(-c3cc(C(C)(C)C)nc4[nH]nc(N)c34)cc2)c1 [Example 9, 1-[4-(3-amino-6-tert-butyl-1H-pyrazolo[3,4-b]pyridin-4-yl)-phenyl]-3-m-tolyl-urea] | 500 to 2000 | ≤ 500 | ≤ 500
5 | CC(C)(C)c1cc(-c2ccc(NC(=O)Nc3ccc(F)cc3)cc2)c2c(N)n[nH]c2n1 [Example 12, 1-[4-(3-amino-6-tert-butyl-1H-pyrazolo[3,4-b]pyridin-4-yl)-phenyl]-3-(4-fluoro-phenyl)-urea] | – | 500 to 2000 | ≤ 500
6 | Nc1n[nH]c2nc(C3CC3)cc(-c3ccc(NC(=O)Nc4ccccc4)cc3)c12 [Example 14, 1-[4-(3-amino-6-cyclopropyl-1H-pyrazolo[3,4-b]pyridin-4-yl)-phenyl]-3-phenyl-urea] | ≤ 500 | 500 to 2000 | ≤ 500
7 | Nc1n[nH]c2nc(C3CC3)cc(-c3ccc(NC(=O)Nc4ccccc4F)cc3)c12 [Example 15, 1-[4-(3-amino-6-cyclopropyl-1H-pyrazolo[3,4-b]pyridin-4-yl)-phenyl]-3-(2-fluoro-phenyl)-urea] | 500 to 2000 | ≤ 500 | ≤ 500
8 | CC(C)c1cc(-c2ccc(NC(=O)Nc3cccc(C(F)(F)F)c3)cc2)c2c(N)n[nH]c2n1 [Example 16, 1-[4-(3-amino-6-isopropyl-1H-pyrazolo[3,4-b]pyridin-4-yl)-phenyl]-3-(3-trifluoromethyl-phenyl)-urea] | ≤ 500 | ≤ 500 | ≤ 500
9 | Cc1ccc(C(=O)Nc2ccc(-c3cc(C(C)(C)C)nc4[nH]nc(N)c34)cc2)cc1 [Example 17, N-[4-(3-amino-6-tert-butyl-1H-pyrazolo[3,4-b]pyridin-4-yl)-phenyl]-4-methyl-benzamide] | 500 to 2000 | 500 to 2000 | 500 to 2000
10 | CC(C)(C)c1cc(-c2ccc(NC(=O)Nc3cccc(C(F)(F)F)c3)cc2)c2c(N)n[nH]c2n1 [Example 27, 1-[4-(3-amino-6-tert-butyl-1H-pyrazolo-[3,4-b]pyridin-4-yl)-phenyl]-3-(3-trifluoro-methyl-phenyl)-urea] | ≤ 500 | ≤ 500 | ≤ 500
11 | Cc1ccc(F)c(NC(=O)Nc2ccc(-c3cc(C(C)(C)C)nc4[nH]nc(N)c34)cc2)c1 [Example 31, 1-[4-(3-amino-6-tert-butyl-1 H-pyrazolo[3,4-b]pyridin-4-yl)-phenyl]-3-(2-fluoro-5-methyl-phenyl)-urea] | – | ≤ 500 | –
12 | CC(C)(C)c1cc(-c2ccc(NC(=O)Nc3cc(C(F)(F)F)ccc3F)cc2)c2c(N)n[nH]c2n1 [Example 37, 1-[4-(3-amino-6-tert-butyl-1H-pyrazolo[3,4-b]pyridin-4-yl)-phenyl]-3-(2-fluoro-5-trifluoromethyl-phenyl)-urea] | ≤ 500 | ≤ 500 | ≤ 500
13 | CC(C)(C)c1cc(-c2ccc(NC(=O)Cc3ccccc3)cc2)c2c(N)n[nH]c2n1 [Example 47, N-[4-(3-amino-6-tert-butyl-1H-pyrazolo[3,4-b]pyridin-4-yl)-phenyl]-2-phenyl-acetamide] | – | 500 to 2000 | 500 to 2000
14 | CC(C)(C)c1cc(-c2ccc(NC(=O)C3(c4ccccc4)CC3)cc2)c2c(N)n[nH]c2n1 [Example 49, 1-phenyl-cyclopropanecarboxylic acid [4-(3-amino-6-tert-butyl-1H-pyrazolo[3,4-b]pyridin-4-yl)-phenyl]-amide] | – | ≤ 500 | ≤ 500
15 | CC(C)(C)c1cc(-c2ccc(NC(=O)C(C)(C)c3ccccc3)cc2)c2c(N)n[nH]c2n1 [Example 51, N-[4-(3-amino-6-tert-butyl-1H-pyrazolo[3,4-b]pyridin-4-yl)-phenyl]-2-phenyl-isobutyramide] | – | 500 to 2000 | ≤ 500
